Series [1] has as its system EBOV. The series can be described thus: microbe, parasite or virus in culture. The class given is cell-based, Ebola virus.
The test system of the next series is HeLa cells. The settings on record: read-out: HeLa CC50; n=2.
A short description of another series: in vitro. The conditions noted are these: human.
Series [2] relates to VP35-nucleoprotein interface. The settings on record: cited from earlier work.
Series [3] deals with EBOV. The settings on record: in vivo, 30 mg/kg/day; cited from earlier work.
Where [4] appears, read: read-out: EC50 Activity against EBOV, n=4.
[5] abbreviates: Zaire ebolavirus, HeLa, 24 h, read-out: EC50 Activity against EBOV, n=4.

The structures appear in SMILES notation. Where “and” joins values, the source holds several entries; their conditions need not be identical. Identical values can stand only once. Entries after “also recorded” stand apart in the source; their conditions may differ. Like-named read-outs stand apart in the source and are kept apart here.

A word on the EC50: it is the concentration needed to bring the measured effect to its halfway point. By IC50 is commonly meant the concentration that inhibits the measured activity by half.

For the compound `O=C(O)c1cccnc1` [Nicotinic acid, reference compound], the “EC50 Activity against EBOV” value in the series with EBOV [1] is “inactive”.
With `CC(=O)OCCc1ccccc1` [Phenethyl acetate], the EC50 in the series with EBOV [1] (setting [4]) was 10 µM and 10.4 µM. Also, the CC50 in the series with HeLa cells is over 50 µM.
On to `COc1ccc(C=O)cc1` [P-anisaldehyde], for which the figures for the EC50 with EBOV [1] (setting [5]) and in the series on EBOV [1] (setting [4]) were 2.8 µM and 2.9 ± 0.6 µM, respectively. The CC50 in the series “in vitro” was over 50 µM.
Regarding `CC(C)[C@@H]1CC[C@@H](C)C[C@H]1O` [L- menthol], in the series with EBOV [1] (n=4), the “EC50 Activity against EBOV” value is “no appreciable activity; also recorded: inactive”.
For `Cc1ccc(C(=O)c2cc(O)c(O)c([N+](=O)[O-])c2)cc1` [tolcapone], the IC50 in series [2] is 2 µM.
Regarding `C=CCc1ccc(O)c(OC)c1` [Eugenol], the half-maximal effective concentration (EC50) in the series on EBOV [1] (setting [5]) is 1.3 ± 0.5 µM. Also, in the series “in vitro”, the CC50 was over 50 µM.
Regarding `CC(=O)OCc1ccccc1` [Benzyl acetate], the concentration giving a half-maximal response (EC50) was found to be 10 µM with EBOV [1] (setting [5]) and 10.7 ± 5 µM with EBOV [1] (setting [4]). The CC50 in “in vitro” was over 50 µM.
On to `CCN(CC)CCOc1ccc2c(c1)C(=O)c1cc(OCCN(CC)CC)ccc1-2` [tilorone], for which the “efficacy in a mouse model of EBOV infection” value in the series on EBOV [3] was 100%.
In the case of `NC(=O)c1cccnc1` [Nicotinamide, reference compound], in the series on EBOV [1] (n=4), the “EC50 Activity against EBOV” value is “inactive”.
